Assays:
[1] = molecular target: 5-hydroxytryptamine receptor 1A (Homo sapiens) (UniProt P08908); conditions: Compound concentration 10.0 uM
[2] = molecular target: 5-hydroxytryptamine receptor 1B (Homo sapiens) (UniProt P28222); conditions: Compound concentration 10.0 uM
[3] = molecular target: 5-hydroxytryptamine receptor 1D (Homo sapiens) (UniProt P28221); conditions: Compound concentration 10.0 uM
[4] = molecular target: 5-hydroxytryptamine receptor 1E (Homo sapiens) (UniProt P28566); conditions: Compound concentration 10.0 uM
[5] = molecular target: 5-hydroxytryptamine receptor 2A (Homo sapiens) (UniProt P28223); conditions: Compound concentration 10.0 uM
[6] = molecular target: 5-hydroxytryptamine receptor 3A (Homo sapiens) (UniProt P46098); conditions: Compound concentration 10.0 uM
[7] = molecular target: 5-hydroxytryptamine receptor 6 (Homo sapiens) (UniProt P50406); conditions: Compound concentration 10.0 uM
Sequence of 5-hydroxytryptamine receptor 6 (Homo sapiens) (P50406 whole entry): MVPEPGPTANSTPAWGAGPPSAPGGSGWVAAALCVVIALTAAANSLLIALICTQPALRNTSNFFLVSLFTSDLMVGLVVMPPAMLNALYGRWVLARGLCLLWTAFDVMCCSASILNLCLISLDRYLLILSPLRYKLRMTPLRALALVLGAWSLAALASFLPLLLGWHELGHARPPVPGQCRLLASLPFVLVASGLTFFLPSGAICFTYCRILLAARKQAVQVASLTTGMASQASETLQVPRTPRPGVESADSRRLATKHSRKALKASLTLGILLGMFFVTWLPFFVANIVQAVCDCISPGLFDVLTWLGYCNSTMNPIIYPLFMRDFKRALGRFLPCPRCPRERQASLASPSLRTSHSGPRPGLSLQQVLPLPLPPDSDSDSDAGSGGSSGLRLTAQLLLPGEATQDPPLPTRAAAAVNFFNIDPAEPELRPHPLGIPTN

[8] = molecular target: 5-hydroxytryptamine receptor 7 (Homo sapiens) (UniProt P34969); conditions: Compound concentration 10.0 uM
Sequence of 5-hydroxytryptamine receptor 7 (Homo sapiens) (P34969 whole entry): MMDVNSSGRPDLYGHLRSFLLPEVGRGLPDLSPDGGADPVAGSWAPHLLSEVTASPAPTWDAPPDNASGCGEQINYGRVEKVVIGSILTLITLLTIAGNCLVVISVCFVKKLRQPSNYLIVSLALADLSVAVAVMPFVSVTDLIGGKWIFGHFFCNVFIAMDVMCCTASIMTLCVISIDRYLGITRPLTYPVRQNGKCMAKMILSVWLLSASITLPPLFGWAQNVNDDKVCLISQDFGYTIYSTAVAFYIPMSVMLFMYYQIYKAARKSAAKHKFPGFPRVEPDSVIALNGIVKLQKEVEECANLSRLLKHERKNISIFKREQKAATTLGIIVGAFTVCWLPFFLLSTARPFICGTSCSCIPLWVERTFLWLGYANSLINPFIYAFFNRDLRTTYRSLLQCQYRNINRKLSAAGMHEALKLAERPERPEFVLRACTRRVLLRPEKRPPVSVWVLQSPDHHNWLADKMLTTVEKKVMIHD

[9] = molecular target: D(1A) dopamine receptor (Homo sapiens) (UniProt P21728); conditions: Compound concentration 10.0 uM
[10] = molecular target: D(3) dopamine receptor (Homo sapiens) (UniProt P35462); conditions: Compound concentration 10.0 uM
[11] = molecular target: D(4) dopamine receptor (Homo sapiens) (UniProt P21917); conditions: Compound concentration 10.0 uM
[12] = molecular target: D(1B) dopamine receptor (Homo sapiens) (UniProt P21918); conditions: Compound concentration 10.0 uM
[13] = molecular target: Mu-type opioid receptor (Homo sapiens) (UniProt P35372); conditions: Compound concentration 10.0 uM
Sequence of Mu-type opioid receptor (Homo sapiens) (P35372 whole entry): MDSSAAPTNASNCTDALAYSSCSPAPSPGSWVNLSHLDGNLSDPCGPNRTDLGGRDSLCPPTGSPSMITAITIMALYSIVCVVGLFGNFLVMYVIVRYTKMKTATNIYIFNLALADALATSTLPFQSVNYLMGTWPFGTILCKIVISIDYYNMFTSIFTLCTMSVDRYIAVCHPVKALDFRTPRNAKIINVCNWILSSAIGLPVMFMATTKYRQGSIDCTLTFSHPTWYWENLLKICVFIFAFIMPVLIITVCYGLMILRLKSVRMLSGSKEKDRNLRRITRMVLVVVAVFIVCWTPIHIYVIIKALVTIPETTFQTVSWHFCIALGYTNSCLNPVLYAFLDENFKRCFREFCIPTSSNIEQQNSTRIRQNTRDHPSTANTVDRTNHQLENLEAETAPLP

[14] = molecular target: Delta-type opioid receptor (Homo sapiens) (UniProt P41143); conditions: Compound concentration 10.0 uM
Sequence of Delta-type opioid receptor (Homo sapiens) (P41143 whole entry): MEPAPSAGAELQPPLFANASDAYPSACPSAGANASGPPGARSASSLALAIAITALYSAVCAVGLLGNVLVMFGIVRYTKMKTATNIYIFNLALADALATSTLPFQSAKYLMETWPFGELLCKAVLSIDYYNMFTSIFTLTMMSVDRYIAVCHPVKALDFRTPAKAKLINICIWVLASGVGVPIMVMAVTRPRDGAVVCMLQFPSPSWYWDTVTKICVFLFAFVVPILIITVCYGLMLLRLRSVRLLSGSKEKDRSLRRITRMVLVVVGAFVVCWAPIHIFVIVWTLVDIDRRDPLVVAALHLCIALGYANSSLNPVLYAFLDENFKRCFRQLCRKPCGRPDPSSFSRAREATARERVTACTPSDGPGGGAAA

[15] = molecular target: Kappa-type opioid receptor (Homo sapiens) (UniProt P41145); conditions: Compound concentration 10.0 uM
Sequence of Kappa-type opioid receptor (Homo sapiens) (P41145 whole entry): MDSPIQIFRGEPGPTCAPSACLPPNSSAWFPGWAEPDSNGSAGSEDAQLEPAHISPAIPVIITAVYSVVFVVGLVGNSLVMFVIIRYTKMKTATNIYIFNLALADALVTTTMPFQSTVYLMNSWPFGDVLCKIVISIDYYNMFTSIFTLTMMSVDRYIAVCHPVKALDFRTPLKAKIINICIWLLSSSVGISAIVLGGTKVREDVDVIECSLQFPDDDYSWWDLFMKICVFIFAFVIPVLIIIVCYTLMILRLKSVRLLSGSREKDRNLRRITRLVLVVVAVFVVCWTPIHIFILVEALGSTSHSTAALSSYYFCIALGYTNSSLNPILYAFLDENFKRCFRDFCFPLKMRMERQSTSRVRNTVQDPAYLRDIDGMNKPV

[16] = molecular target: T1, GABA-A receptor; anion channel (Rattus norvegicus) (UniProt O09028+P15431+P18506+P18508+P19969+P20236+P23574+P23576+P28471+P28473+P30191+P62813+P63079+P63138+Q91ZM7+Q9ES14); conditions: Compound concentration 10.0 uM
[17] = molecular target: Histamine H1 receptor (Homo sapiens) (UniProt P35367); conditions: Compound concentration 10.0 uM
[18] = molecular target: Histamine H2 receptor (Homo sapiens) (UniProt P25021); conditions: Compound concentration 10.0 uM
[19] = molecular target: Histamine H3 receptor (Homo sapiens) (UniProt Q9Y5N1); conditions: Compound concentration 10.0 uM
[20] = molecular target: Alpha-1A adrenergic receptor (Homo sapiens) (UniProt P35348); conditions: Compound concentration 10.0 uM
[21] = molecular target: Alpha-1B adrenergic receptor (Homo sapiens) (UniProt P35368); conditions: Compound concentration 10.0 uM
[22] = molecular target: Alpha-2A adrenergic receptor (Homo sapiens) (UniProt P08913); conditions: Compound concentration 10.0 uM
[23] = molecular target: Alpha-2B adrenergic receptor (Homo sapiens) (UniProt P18089); conditions: Compound concentration 10.0 uM
[24] = molecular target: Alpha-2C adrenergic receptor (Homo sapiens) (UniProt P18825); conditions: Compound concentration 10.0 uM
[25] = molecular target: Beta-1 adrenergic receptor (Homo sapiens) (UniProt P08588); conditions: Compound concentration 10.0 uM
Sequence of Beta-1 adrenergic receptor (Homo sapiens) (P08588 whole entry, looked up): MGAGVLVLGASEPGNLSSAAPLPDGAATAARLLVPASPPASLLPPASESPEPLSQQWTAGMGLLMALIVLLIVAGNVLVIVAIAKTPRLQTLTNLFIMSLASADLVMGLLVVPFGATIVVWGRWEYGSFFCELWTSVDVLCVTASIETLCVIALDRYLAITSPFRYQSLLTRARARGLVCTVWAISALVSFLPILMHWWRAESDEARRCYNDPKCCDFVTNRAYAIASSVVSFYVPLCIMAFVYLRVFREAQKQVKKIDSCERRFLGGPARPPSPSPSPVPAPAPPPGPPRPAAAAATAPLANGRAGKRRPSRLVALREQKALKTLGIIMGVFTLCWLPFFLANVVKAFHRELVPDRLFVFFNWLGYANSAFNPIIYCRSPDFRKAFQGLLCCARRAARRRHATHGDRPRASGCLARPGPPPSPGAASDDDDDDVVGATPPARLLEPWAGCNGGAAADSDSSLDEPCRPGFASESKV

[26] = molecular target: Beta-2 adrenergic receptor (Homo sapiens) (UniProt P07550); conditions: Compound concentration 10.0 uM
Sequence of Beta-2 adrenergic receptor (Homo sapiens) (P07550 whole entry, looked up): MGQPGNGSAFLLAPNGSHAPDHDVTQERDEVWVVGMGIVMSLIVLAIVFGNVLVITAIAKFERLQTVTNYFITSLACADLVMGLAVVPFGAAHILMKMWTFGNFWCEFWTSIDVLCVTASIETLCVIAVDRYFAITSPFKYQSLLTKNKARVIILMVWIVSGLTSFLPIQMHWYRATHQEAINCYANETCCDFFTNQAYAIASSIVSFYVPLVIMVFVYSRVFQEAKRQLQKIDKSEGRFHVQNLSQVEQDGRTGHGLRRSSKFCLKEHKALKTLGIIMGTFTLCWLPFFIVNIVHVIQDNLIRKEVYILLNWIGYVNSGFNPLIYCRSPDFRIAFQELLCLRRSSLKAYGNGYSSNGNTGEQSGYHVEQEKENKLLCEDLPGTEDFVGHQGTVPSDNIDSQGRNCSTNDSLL

[27] = molecular target: Muscarinic acetylcholine receptor M1 (Homo sapiens) (UniProt P11229); conditions: Compound concentration 10.0 uM
[28] = molecular target: Muscarinic acetylcholine receptor M2 (Homo sapiens) (UniProt P08172); conditions: Compound concentration 10.0 uM
Sequence of Muscarinic acetylcholine receptor M2 (Homo sapiens) (P08172 whole entry): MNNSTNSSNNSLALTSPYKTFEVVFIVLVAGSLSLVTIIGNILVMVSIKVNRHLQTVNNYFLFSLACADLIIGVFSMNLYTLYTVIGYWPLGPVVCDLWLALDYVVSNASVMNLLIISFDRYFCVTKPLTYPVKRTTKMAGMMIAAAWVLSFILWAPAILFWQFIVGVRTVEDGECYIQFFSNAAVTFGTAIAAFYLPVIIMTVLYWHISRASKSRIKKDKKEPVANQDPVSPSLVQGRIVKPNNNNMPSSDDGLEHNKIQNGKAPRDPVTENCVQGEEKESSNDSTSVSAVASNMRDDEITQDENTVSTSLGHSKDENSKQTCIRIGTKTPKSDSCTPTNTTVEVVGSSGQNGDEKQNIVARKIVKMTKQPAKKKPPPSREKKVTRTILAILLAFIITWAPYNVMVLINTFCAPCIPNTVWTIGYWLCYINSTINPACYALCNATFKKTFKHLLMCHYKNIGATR

[29] = molecular target: Muscarinic acetylcholine receptor M3 (Homo sapiens) (UniProt P20309); conditions: Compound concentration 10.0 uM
Sequence of Muscarinic acetylcholine receptor M3 (Homo sapiens) (P20309 whole entry, looked up): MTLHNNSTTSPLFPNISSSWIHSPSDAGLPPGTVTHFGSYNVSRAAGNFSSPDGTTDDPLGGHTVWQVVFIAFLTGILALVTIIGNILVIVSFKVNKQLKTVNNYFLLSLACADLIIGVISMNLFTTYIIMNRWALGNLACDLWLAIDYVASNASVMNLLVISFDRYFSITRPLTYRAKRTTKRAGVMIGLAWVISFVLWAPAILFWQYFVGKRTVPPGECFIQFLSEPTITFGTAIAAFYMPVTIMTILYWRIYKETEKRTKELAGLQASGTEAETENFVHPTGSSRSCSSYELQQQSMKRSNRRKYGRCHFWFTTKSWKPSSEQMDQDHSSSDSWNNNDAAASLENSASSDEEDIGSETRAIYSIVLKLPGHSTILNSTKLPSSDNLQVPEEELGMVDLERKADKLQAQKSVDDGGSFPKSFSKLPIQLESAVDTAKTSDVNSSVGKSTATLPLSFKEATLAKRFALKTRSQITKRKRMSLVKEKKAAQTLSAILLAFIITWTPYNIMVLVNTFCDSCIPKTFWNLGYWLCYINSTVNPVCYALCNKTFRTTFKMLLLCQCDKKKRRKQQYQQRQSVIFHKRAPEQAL

[30] = molecular target: Muscarinic acetylcholine receptor M4 (Homo sapiens) (UniProt P08173); conditions: Compound concentration 10.0 uM
[31] = molecular target: Muscarinic acetylcholine receptor M5 (Homo sapiens) (UniProt P08912); conditions: Compound concentration 10.0 uM
Sequence of Muscarinic acetylcholine receptor M5 (Homo sapiens) (P08912 whole entry): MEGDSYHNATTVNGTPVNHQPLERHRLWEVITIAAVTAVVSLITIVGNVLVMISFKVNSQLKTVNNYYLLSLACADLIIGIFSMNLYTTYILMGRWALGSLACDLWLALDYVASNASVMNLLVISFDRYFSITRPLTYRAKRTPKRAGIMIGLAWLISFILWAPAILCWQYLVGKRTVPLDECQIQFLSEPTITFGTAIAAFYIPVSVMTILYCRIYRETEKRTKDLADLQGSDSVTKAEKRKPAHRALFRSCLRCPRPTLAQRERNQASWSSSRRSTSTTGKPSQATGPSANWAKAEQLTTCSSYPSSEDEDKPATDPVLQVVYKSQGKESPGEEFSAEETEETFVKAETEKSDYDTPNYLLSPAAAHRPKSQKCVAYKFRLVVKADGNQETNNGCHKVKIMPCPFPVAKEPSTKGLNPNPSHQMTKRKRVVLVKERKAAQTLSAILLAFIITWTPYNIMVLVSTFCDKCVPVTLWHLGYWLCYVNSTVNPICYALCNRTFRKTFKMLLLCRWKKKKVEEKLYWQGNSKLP

[32] = molecular target: Beta-3 adrenergic receptor (Homo sapiens) (UniProt P13945); conditions: Compound concentration 10.0 uM
[33] = molecular target: T1, GABA-A receptor; anion channel (Rattus norvegicus); conditions: Compound concentration 10.0 uM; remark: listed apart in the source
[34] = molecular target: Alpha-1D adrenergic receptor (Homo sapiens) (UniProt P25100); conditions: Compound concentration 10.0 uM
[35] = molecular target: Sigma intracellular receptor 2 (Homo sapiens) (UniProt Q5BJF2); conditions: Compound concentration 10.0 uM
[36] = molecular target: Sigma non-opioid intracellular receptor 1 (Homo sapiens) (UniProt Q99720); conditions: Compound concentration 10.0 uM
Sequence of Sigma non-opioid intracellular receptor 1 (Homo sapiens) (Q99720 whole entry): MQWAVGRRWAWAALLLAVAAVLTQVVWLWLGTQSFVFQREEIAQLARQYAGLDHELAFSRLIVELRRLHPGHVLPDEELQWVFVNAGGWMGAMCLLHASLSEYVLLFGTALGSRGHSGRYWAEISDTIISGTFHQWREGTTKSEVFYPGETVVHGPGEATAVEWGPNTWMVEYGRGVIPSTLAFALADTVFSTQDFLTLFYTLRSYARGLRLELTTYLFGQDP

[37] = BET mutant TR-FRET assay (BRDT BD2); design: species or system Homo sapiens
[38] = molecular target: 5-hydroxytryptamine receptor 2B (Homo sapiens) (UniProt P41595); conditions: Compound concentration 10.0 uM
[39] = molecular target: 5-hydroxytryptamine receptor 2C (Homo sapiens) (UniProt P28335); conditions: Compound concentration 10.0 uM
[40] = molecular target: 5-hydroxytryptamine receptor 5A (Homo sapiens) (UniProt P47898); conditions: Compound concentration 10.0 uM
[41] = molecular target: D(2) dopamine receptor (Homo sapiens) (UniProt P14416); conditions: Compound concentration 10.0 uM
[42] = molecular target: Sodium-dependent serotonin transporter (Homo sapiens) (UniProt P31645); conditions: Compound concentration 10.0 uM
[43] = molecular target: Sodium-dependent noradrenaline transporter (Homo sapiens) (UniProt P23975); conditions: Compound concentration 10.0 uM
[44] = molecular target: Histamine H4 receptor (Homo sapiens) (UniProt Q9H3N8); conditions: Compound concentration 10.0 uM
Rattus norvegicus = organism: Rattus norvegicus; conditions: Compound concentration 10.0 uM

SMILES: CNC(=O)c1cc(C(=O)N[C@H]2[C@@H]3COC[C@@H]32)cc2c1O[C@@H](CF)[C@@H]2c1ccccc1
- inhibition [1]: 14.9%
- inhibition [2]: -8.28%
- inhibition [3]: -8.07%
- inhibition [4]: 0.03%
- inhibition [5]: 11.6%
- inhibition [6]: 10.6%
- inhibition [7]: -1.21%
- inhibition [8]: 1.31%
- inhibition [9]: -6.73%
- inhibition [10]: 4.11%
- inhibition [11]: 17.7%
- inhibition [12]: -7.16%
- inhibition [13]: 4.77%
- inhibition [14]: 17.1%
- inhibition [15]: 41.1%
- inhibition [16]: 14.5%
- inhibition [17]: -1.58%
- inhibition [18]: 4.49%
- inhibition [19]: -5.65%
- inhibition [20]: 7.39%
- inhibition [21]: -0.98%
- inhibition [22]: 13.8%
- inhibition [23]: 22.8%
- inhibition [24]: 7.66%
- inhibition [25]: 6.93%
- inhibition [26]: 9.35%
- inhibition [27]: 12.1%
- inhibition [28]: -7.3%
- inhibition [29]: 12.6%
- inhibition [30]: 6.19%
- inhibition [31]: 18%
- inhibition [32]: 31%
- inhibition [33]: 74.2%
- inhibition [34]: -7.87%
- inhibition [35]: 35.6%
- inhibition [36]: 10.2%

SMILES: CNC(=O)c1cc(C(=O)N[C@H]2[C@@H]3COC[C@@H]32)cc2c1O[C@H](CF)[C@H]2c1ccccc1 [GSK973]
- pIC50 [37]: 7.4
- inhibition [1]: 8.96%
- inhibition [2]: -0.1%
- inhibition [3]: -5.14%
- inhibition [5]: 13.4%
- inhibition [38]: 28.2%
- inhibition [39]: 22.2%
- inhibition [6]: 20.2%
- inhibition [40]: 12.5%
- inhibition [7]: 16.8%
- inhibition [8]: 13.6%
- inhibition [9]: 9.7%
- inhibition [41]: 60.9%
- inhibition [10]: 81.8%
- inhibition [11]: 81.6%
- inhibition [12]: 28.3%
- inhibition [42]: 27.2%
- inhibition [43]: 0.32%
- inhibition [13]: -5.14%
- inhibition [14]: 2.46%
- inhibition [15]: 1.22%
- inhibition [16]: 4.07%
- inhibition [18]: -3.94%
- inhibition [19]: -9.57%
- inhibition [44]: 9.36%
- inhibition [20]: -4.55%
- inhibition [21]: 1.49%
- inhibition [22]: 1.67%
- inhibition [23]: 12.5%
- inhibition [24]: 8.26%
- inhibition [25]: 6.03%
- inhibition [26]: 17.9%
- inhibition [28]: -5.52%
- inhibition [29]: 11.2%
- inhibition [30]: 2.78%
- inhibition [31]: 2.23%
- inhibition [32]: 15.5%
- inhibition [33]: 30.2%
- inhibition (Rattus norvegicus): 9.06%
- inhibition [34]: 3.51%
- inhibition [35]: 14.3%
- inhibition [36]: 28.4%

— ChEMBL document CHEMBL4630902 (2021)
